The text below walks through data of article PMC12257540, “From Inhibitors to PET: SAR-Based Development of [^18F]SK60 for mIDH1 Imaging” (Journal of Medicinal Chemistry, 2025).

Values joined by “and” are separate entries in the source; they are usually repeats but may differ in a detail not shown here. Identical values can stand only once.

Data set [1] can be described thus: logD7.4 by shake-flask method (n-octanol/PBS). Type of data set: physicochemical. The settings on record: n-octanol/PBS pH 7.4, n = 4. The method, then: The logD 7.4 value of [ ^ 18 F]-SK60 was experimentally determined by the conventional shake-flask method using n-octanol and PBS as the partition system.
The two phases were presaturated with each other. A solution of the radiotracer (10 μL, 1.1 MBq) was added to a 15 mL plastic centrifuge tube containing n-octanol (3 mL) and PBS (3 mL). The tube was vortexed for 3 min and centrifuged at 3500 rpm for 5 min (Anke TDL80–2B, China). […] The logD 7.4 was determined as the ratio of cpm/mL of the n-octanol layer to that of the buffer layer. Samples from the n-octanol layer were redistributed until consistent distribution coefficient values were obtained. The measurement was carried out in triplicate and repeated three times.

The nature of data set [2]: In vivo metabolism in naïve mice (radio-RP-HPLC and radio-MLC of plasma and brain). On the set-up: species or system CD-1 mice. The settings on record: 30 min p.i., i.v.; for parent radioligand fraction in brain: mouse brain; for parent radioligand fraction in plasma: mouse plasma. The procedure:
The metabolic stability of [ ^ 18 F]-SK60 was investigated ex vivo by radio-RP-HPLC and radio-micellar-HPLC (MLC) analyses of plasma and brain samples obtained from naïve female mice (n = 3) at 30 min post intravenous injection (p.i.). For the preparation of the RP-HPLC samples, two solvent systems MeCN/water (9/1; v/v) and MeOH/water (9/1; v/v) were tested for activity extraction from the plasma and brain samples. With both systems, recoveries of higher than 95% could be obtained. […] For the radio-MLC analyses, the brain and plasma samples were treated with sodium dodecyl sulfate and directly injected into the MLC system. Despite the slightly different elution profile compared to the RP-HPLC system caused by different separation mechanisms, the quantification of the peaks gave similar results (Figure B). Altogether, the results obtained with these two complementary systems indicate a high metabolic stability of [ ^ 18 F]-SK60 in mice without the formation of brain-penetrable radiometabolites.
[ ^ 18 F]-SK60 (24.3 ± 2.89 MBq) diluted in 200 μL of sterile isotonic saline was injected into the tail vein of restrained, awake mice. Thirty min after injection, animals were anesthetized with isoflurane, blood was collected from the retro-orbital plexus with a heparinized glass Pasteur pipet, and the anesthetized animal was sacrificed by cervical dislocation. Blood plasma was obtained by centrifugation of the whole blood (8000 rpm, 4 °C, 2 min). The brain was isolated, rapidly rinsed with 1 mL isotonic saline to remove superficial blood, and finally homogenized in 1 mL deionized water in an ice–water bath (Potter B. Braun, 1000 rpm, 10 strokes).
Protein precipitation and extraction were performed by using an ice-cold MeCN/water (9:1 v/v) or MeOH/water (9:1 v/v) mixture at a 4:1 (v/v) solvent-to-sample ratio for plasma or brain homogenates. Samples were vortexed for 3 min, equilibrated on ice for 5 min, and centrifuged at 10,000 rpm for 5 min. […] Combined supernatants were concentrated under nitrogen at 75 °C to ∼100 μL and analyzed via radio-HPLC using a Reprosil-Pur 120 C18-AQ column with a gradient MeCN/20 mM NH4OAcaq (pH 6.8) elution (gradient: eluent A 10% MeCN/20 mM NH4OAcaq.; eluent B 90% MeCN/20 mM NH4OAcaq.; 0–5 min 100% A, 5–17 min up to 100% B, 17–26 min 100% B, 26–27 min up to 100% A, 27–30 min 100% A). […]
For the preparation of the MLC samples, mouse plasma (20–50 μL, 2–3 kBq) was dissolved in 200 μL of 200 mM aqueous sodium dodecyl sulfate (SDS) and injected into the MLC system. […] The MLC system consisted of a JASCO PU-980 pump, an AS-2055Plus autoinjector with a 2 mL sample loop, and a UV-1575 detector coupled with a γ radioactivity HPLC detector (Gabi Star, raytest Isotopenmessgeräte GmbH; Straubenhardt; Germany). […]

Another data set has as its target P-gp efflux transporter (Mus musculus, UniProt P21447). In words: Efflux transporter P-gp substrate study (PET, cyclosporine A pretreatment). The settings on record: cyclosporine A 50 mg/kg i.v. 30 min before radioligand.

Sequence of P-gp efflux transporter (P21447 whole entry): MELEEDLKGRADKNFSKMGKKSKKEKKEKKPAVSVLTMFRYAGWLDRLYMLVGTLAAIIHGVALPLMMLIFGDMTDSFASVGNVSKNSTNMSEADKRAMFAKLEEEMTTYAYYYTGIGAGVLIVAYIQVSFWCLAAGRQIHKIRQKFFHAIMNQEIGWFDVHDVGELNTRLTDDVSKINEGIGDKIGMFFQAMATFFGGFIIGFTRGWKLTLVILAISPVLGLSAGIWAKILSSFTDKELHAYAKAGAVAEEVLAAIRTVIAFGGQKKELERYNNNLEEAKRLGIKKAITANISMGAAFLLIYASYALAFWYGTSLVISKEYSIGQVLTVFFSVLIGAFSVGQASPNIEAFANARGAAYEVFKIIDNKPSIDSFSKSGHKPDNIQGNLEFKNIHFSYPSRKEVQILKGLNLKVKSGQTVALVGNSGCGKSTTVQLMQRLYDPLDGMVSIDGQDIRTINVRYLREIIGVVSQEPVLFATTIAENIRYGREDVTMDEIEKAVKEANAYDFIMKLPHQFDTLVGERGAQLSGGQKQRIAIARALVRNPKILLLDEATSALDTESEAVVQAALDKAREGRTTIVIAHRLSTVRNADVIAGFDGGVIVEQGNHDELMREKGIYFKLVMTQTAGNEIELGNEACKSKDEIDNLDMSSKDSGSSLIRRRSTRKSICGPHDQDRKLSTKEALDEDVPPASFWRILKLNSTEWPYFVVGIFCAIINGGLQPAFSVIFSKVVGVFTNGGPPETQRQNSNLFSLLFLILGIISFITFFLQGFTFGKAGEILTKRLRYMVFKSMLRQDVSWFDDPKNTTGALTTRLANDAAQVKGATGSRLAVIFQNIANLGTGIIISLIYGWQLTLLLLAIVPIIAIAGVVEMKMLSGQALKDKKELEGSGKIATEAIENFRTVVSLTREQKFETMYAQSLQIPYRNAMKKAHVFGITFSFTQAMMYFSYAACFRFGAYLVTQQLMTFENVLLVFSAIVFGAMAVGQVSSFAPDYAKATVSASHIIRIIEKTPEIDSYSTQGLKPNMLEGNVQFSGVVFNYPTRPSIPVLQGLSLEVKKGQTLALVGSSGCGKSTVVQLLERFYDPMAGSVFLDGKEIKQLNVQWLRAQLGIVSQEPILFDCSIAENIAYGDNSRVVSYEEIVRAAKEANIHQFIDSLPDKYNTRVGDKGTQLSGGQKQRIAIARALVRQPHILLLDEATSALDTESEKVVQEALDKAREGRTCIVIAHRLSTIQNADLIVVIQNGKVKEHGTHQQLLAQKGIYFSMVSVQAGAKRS
Method for P-gp efflux transporter: To investigate the role of P-gp, mice were treated with cyclosporine A, an inhibitor of the P-gp efflux transporter.
For the time of the experiments, female CD-1 mice (n = 4; 8–10 weeks; 37–40 g) were kept in a dedicated climatic chamber with free access to water and food under a 12:12 h dark: light cycle at a constant temperature (24 °C). The animals were anesthetized (Anaesthesia Unit U-410, agntho’s, Lidingö, Sweden) with isoflurane (2.0%, 300 mL/min) delivered in a 20% oxygen/80% air mixture (Gas Blender 100 Series, MCQ instruments, Rome, Italy) and their body temperature maintained at 37 °C with a thermal bed system. […] Each PET image was corrected for random coincidences, dead time, scatter, and attenuation (AC) based on a whole body (WB) MR scan. The reconstruction parameters for the list mode data were 3D-ordered subset expectation maximization (OSEM), 4 iterations, 6 subsets, energy window: 400–600 keV, coincidence mode: 1–5, ring difference: 81. The PET data were collected by a continuous WB scan during the entire investigation. […] The brain region was identified using the mouse brain atlas template Ma-Benveniste-Mirrione-FDG. The activity data are expressed as the SUVmean of the overall ROI.

By logD is commonly meant the decadic logarithm of the distribution of all forms, ionised or not, between an organic phase and buffer at a given pH. `Cc1cccc(NC(=O)c2nn(Cc3ccc([18F])cc3)c3c2CN(C(=O)c2ccc[nH]2)CC3(C)C)c1` [[18F]SK60] displayed a log distribution coefficient (logD) in data set [1] of 2.3 ± 0.5. In data set [2] (MLC), the “parent radioligand fraction in brain” value is reported as 100% and the “parent radioligand fraction in plasma” value came to 79%. Also, in data set [2] (RP-HPLC), the “parent radioligand fraction in brain” value stood at 100%; the “parent radioligand fraction in plasma” value is 80 ± 2% and 80%. Moreover, the “increase of brain uptake after cyclosporine A compared to vehicle” value on P-gp efflux transporter is “approximately 2.5 fold”.
